Test results: patent US12559474B2, “Triazine derivatives having virus replication inhibitory activity and pharmaceutical composition comprising the same” (priority 2021, dated 2026)
Read-outs that look alike come from different tables or passages of the source.

How the values were obtained:
SARS-CoV-2 = test: microbe, parasite or virus in culture; assay type: cell-based; details: for EC50: Severe acute respiratory syndrome coronavirus 2, VeroE6/TMPRSS2, 72 h, 50% SARS-CoV-2 infected cell death inhibitory concentration, VeroE6/TMPRSS2 cells, 3 days culture; for coronavirus replication inhibitory activity: at concentrations up to 50 μM, tested as in Test Example 1 (Reference Example 1)
SARS-CoV-2 3CL protease = SARS-CoV-2 3CL protease (Severe acute respiratory syndrome coronavirus 2, UniProt P0DTD1); test: biochemical; details: 50% SARS-CoV-2 3CL protease inhibitory concentration, read-out: IC50

SMILES	EC50 (SARS-CoV-2; class symbols) [nM]	IC50 (SARS-CoV-2 3CL protease; given as class symbols) [nM]	also measured
O=c1[nH]cc(Cl)cc1Cn1c(=O)nc(Nc2cc3cn(CCO)nc3cc2Cl)n(Cc2cc(F)c(F)c(F)c2)c1=O [Compound I-0079]	1000 to 10000	< 100	
COc1ccc(Nc2nc(=O)n(Cc3cc4ccsc4[nH]c3=O)c(=O)n2Cc2cc(F)c(F)c(F)c2)cc1 [Compound I-0081]	< 1000	< 100	
COc1ccc(Nc2nc(=O)n(Cc3cc4cccnc4[nH]c3=O)c(=O)n2Cc2cc(F)c(F)c(F)c2)cc1 [Compound I-0084]	1000 to 10000	< 100	
COc1cc(Cl)c(Nc2nc(=O)n(Cc3ccc[nH]c3=O)c(=O)n2Cc2cc(F)c(F)c(F)c2)c(OC)c1 [Compound I-0094]	1000 to 10000	< 100	
O=c1[nH]cccc1Cn1c(=O)nc(Nc2ccc(OCC(F)F)cc2Cl)n(Cc2cc(F)c(F)c(F)c2)c1=O [Compound I-0095]	1000 to 10000	< 100	
COc1ccc(Nc2nc(=O)n(Cc3cc4cc(OC)ccc4[nH]c3=O)c(=O)n2Cc2cc(F)c(F)c(F)c2)cc1 [Compound I-0100]	1000 to 10000	< 100	
Cn1cc2cc(Nc3nc(=O)n(Cc4cc5ccsc5[nH]c4=O)c(=O)n3Cc3cc(F)c(F)c(F)c3)c(Cl)cc2n1 [Compound I-0110]			EC50 (SARS-CoV-2; CellTiter-Glo 2.0): 321 nM; IC50 (SARS-CoV-2 3CL protease; RapidFire MS): 4.2 nM
Cn1cc2cc(Nc3nc(=O)n(Cc4cn(C)c(=O)[nH]c4=O)c(=O)n3Cc3cc(F)c(F)c(F)c3)c(Cl)cc2n1 [Compound I-0111]	1000 to 10000	< 100	
Cc1cncc(-n2c(=O)nc(Nc3cc4cn(C)nc4cc3F)n(Cc3cc(F)c(F)c(F)c3)c2=O)c1 [Compound I-0112]	< 1000	< 100	
Cc1cncc(-n2c(=O)[nH]/c(=N\c3cc4cn(C)nc4cc3Cl)n(Cc3cc(F)c(F)c(F)c3)c2=O)c1 [Compound I-0113]			EC50 (SARS-CoV-2; CellTiter-Glo 2.0): 177 nM
Cc1cncc(-n2c(=O)nc(Nc3cc4cn(C)nc4cc3C)n(Cc3cc(F)c(F)c(F)c3)c2=O)c1 [Compound I-0114]	1000 to 10000	< 100	
Cc1nc2cc(C)c(Nc3nc(=O)n(Cc4ccc[nH]c4=O)c(=O)n3Cc3cc(F)c(F)c(F)c3)cc2s1 [Compound I-0116]	1000 to 10000	< 100	
COc1ccc(Oc2nc(=O)n(Cc3ccc[nH]c3=O)c(=O)n2Cc2cc(F)c(F)c(F)c2)c(C)c1 [Compound I-0128]	< 1000		IC50 (SARS-CoV-2 3CL protease; RapidFire MS): 9700 nM
COc1ccc(Nc2nc(=O)n(Cc3ccc[nH]c3=O)c(=O)n2Cc2cc(F)c(F)c(F)c2)c(C)c1 [Compound I-0129]	1000 to 10000	< 100	
O=c1[nH]cccc1Cn1c(=O)nc(NC2CCOCC2)n(Cc2cc(F)c(F)c(F)c2)c1=O [Compound I-0132]	< 1000	1000 to 10000	IC50 (SARS-CoV-2 3CL protease; RapidFire MS): 2300 nM
COc1ccc(Nc2nc(=O)n(Cc3ccc[nH]c3=O)c(=O)n2CC2CCCCC2)cc1 [Compound I-0134]	< 1000	1000 to 10000	IC50 (SARS-CoV-2 3CL protease; RapidFire MS): 4000 nM
Cc1cncc(-n2c(=O)nc(Nc3cc4cn(C)nc4cc3Cl)n(Cc3cc(F)c(F)cc3F)c2=O)c1 [Compound I-0361]			EC50 (SARS-CoV-2; CellTiter-Glo 2.0): 131 nM
O=C(O)c1ccc(Oc2ccc(/N=c3\[nH]c(=O)n(-c4cccs4)c(=O)n3Cc3ccc(Cl)cc3)cc2)nc1 [Compound I-575, reference compound]			coronavirus replication inhibitory activity (SARS-CoV-2): did not show coronavirus replication inhibitory activity
O=C(O)c1ccc(Oc2ccc(/N=c3\[nH]c(=O)n(-c4ccon4)c(=O)n3Cc3ccc(Cl)cc3)cc2)nc1 [Compound I-580, reference compound]			coronavirus replication inhibitory activity (SARS-CoV-2): did not show coronavirus replication inhibitory activity
CC(C)Oc1ccc(/N=c2\[nH]c(=O)n(Cc3ncn[nH]3)c(=O)n2Cc2ccc(Cl)cc2)cc1F [Compound I-0679, reference compound]			coronavirus replication inhibitory activity (SARS-CoV-2): did not show coronavirus replication inhibitory activity
COc1ncccc1Cn1c(=O)[nH]/c(=N\c2ccc(OC(C)C)c(F)c2)n(Cc2ccc(Cl)cc2)c1=O [Compound I-0683, reference compound]			coronavirus replication inhibitory activity (SARS-CoV-2): did not show coronavirus replication inhibitory activity
CC(C)Oc1ccc(/N=c2\[nH]c(=O)n(Cc3ccc[nH]c3=O)c(=O)n2Cc2ccc(Cl)cc2)cc1F [Compound I-0685, reference compound]			coronavirus replication inhibitory activity (SARS-CoV-2): did not show coronavirus replication inhibitory activity
Cc1nc2ccc(/N=c3\[nH]c(=O)n(C[C@H]4COC(C)(C)O4)c(=O)n3Cc3ccc(Cl)cc3)cc2s1 [Compound I-1603, reference compound]			coronavirus replication inhibitory activity (SARS-CoV-2): did not show coronavirus replication inhibitory activity
Cn1cnc(Cn2c(=O)nc(Nc3cc4cn(C)nc4cc3Cl)n(Cc3cc(F)ccc3F)c2=O)n1 [II-0208]	1000 to 10000		
CNc1nc2ccc(Nc3nc(=O)n(-c4cncc(Cl)c4)c(=O)n3Cc3ccc(F)c(C#N)c3)cc2s1 [II-0399]	< 1000		
